The test system of one data set is amphetamine antibody. Nature of the data set: amphetamine lysozyme conjugate enzyme immunoassay, cross-reactivity. In kind it is binding. Particulars: related to 1μg/ml amphetamine; 50μl of urine. As for the experimental part: The next drug to be considered is amphetamine. Again, the same procedure is employed for lysozyme as for the prior assays, except that 50μl of urine is employed. The relative reactivity is related to 1μg/ml amphetamine.

For a further data set, the system named is methadone antibody. The experiment in a line: methadone lysozyme conjugate enzyme immunoassay (sensitivity, cross-reactivity). Particulars: relative to methadone at 0.5μg/ml; ratio of concentrations giving the same optical density reading.
Data set [1] relates to morphine antibodies. The experiment in a line: homogeneous enzyme immunoassay with morphine conjugate to lysozyme, cross-reactivity.
In data set [2] the test system is morphine antibodies. The experiment in a line: inhibition of Example 2 morphine-lysozyme conjugate by antibody and recovery by morphine. The format is biochemical.
The next data set deals with thyroxine antibodies. Nature of the data set: activity of thyroxine-lysozyme conjugate (Example 17), inhibition by antibody, return by thyroxine. The format is biochemical.
Setting [3] is: compound concentration 300 μg/ml.
The mark [4] stands for this setting: compound concentration 0.3 μg/ml.

In the case of `CN[C@@H](C)[C@H](O)c1ccccc1` [Ephedrine], the “Relative Reactivity” value in the data set on amphetamine antibody amounted to 0.22.
With `CC(CN1c2ccccc2Sc2ccccc21)N(C)C` (stereo not drawn) [Phenergan], the “Relative Reactivity” value in the data set with methadone antibody is reported as 0.0125.
In the case of `COc1ccc2c(c1)[C@]13CCCC[C@@H]1[C@H](C2)N(C)CC3` [Dextromethorphan], in the data set on methadone antibody, the “Relative Reactivity” value is 0.0042.
For `CNC(C)CC1CCCCC1` (stereo not drawn) [Propylhexedrine], the “Relative Reactivity” value with amphetamine antibody turned out to be 0.05.
For the compound `CC(N)Cc1ccc(O)cc1` (stereo not drawn) [p-Hydroxyamphetamine], the “Relative Reactivity” value in the data set with amphetamine antibody came to 0.022.
For `CN[C@@H](C)Cc1ccccc1` [Methamphetamine], the “Relative Reactivity” value in the data set with amphetamine antibody is listed as 1.1.
Same read-out and setting: under `CC(COc1ccccc1)NC(C)C(O)c1ccc(O)cc1` (stereo not drawn) [Isoxsuprine] stands 0.2; under `CNC(C)(C)Cc1ccccc1` [Mephentermine], 0.62; under `CC(N)Cc1ccccc1` (stereo not drawn) [Amphetamine], 1.
Take `CC(CCc1ccccc1)NC(C)C(O)c1ccc(O)cc1` (stereo not drawn) [Nylidrin]: the “Relative Reactivity” value in the data set on amphetamine antibody was 0.27.
For the compound `CCC(=O)C(CC(C)N(C)C)(c1ccccc1)c1ccccc1` (stereo not drawn) [Methadone], the “Relative Reactivity” value in the data set on methadone antibody is on record as 1. The compound also came in with a Percent max. rate in the data set with morphine antibodies [1] (compound concentration 30 μg/ml (8.7 × 10^-5 M)) of 1%.
`CCC(=O)O[C@](Cc1ccccc1)(c1ccccc1)[C@H](C)CN(C)C` [Darvon] showed a Percent max. rate in the data set on morphine antibodies [1] (setting [3]) of 4%.
As to `CN(C)CCCN1c2ccccc2Sc2ccc(Cl)cc21` [Thorazine], in the data set on morphine antibodies [1] (compound concentration 35 μg/ml (9.9 × 10^-5 M)), the Percent max. rate was 6%.
`COC(=O)[C@H]1[C@@H](OC(=O)c2ccccc2)C[C@@H]2CC[C@H]1N2C` [Cocaine]: the Percent max. rate in the data set on morphine antibodies [1] (setting [3]) is listed as 2%.
On to Morphine glucuronide, for which the Percent max. rate amounted to 4% in the data set on morphine antibodies [1] (setting [4]) and 77% in the data set with morphine antibodies [1] (compound concentration 10 μg/ml (2.1 × 10^-5 M)).
With `COc1ccc2c3c1O[C@H]1[C@@H](O)C=C[C@H]4[C@@H](C2)N(C)CC[C@@]341` [Codeine], the figures for the Percent max. rate in the data set on morphine antibodies [1] (setting [4]) and in the data set on morphine antibodies [1] (compound concentration 3 μg/ml) were 7% and 90%, respectively.
Consider `CC(C)(N)Cc1ccccc1` [phentermine], for which, in the data set with amphetamine antibody, the “Relative Reactivity” value worked out at 0.62.
Take `NCCc1ccccc1` [Phenethylamine]: the “Relative Reactivity” value with amphetamine antibody is listed as 0.2.
As for `CCC(=O)O[C@](Cc1ccccc1)(c1ccccc1)[C@H](C)CN(C)C` [Dextropropoxyphene], the “Relative Reactivity” value in the data set with methadone antibody worked out at 0.00089.
Consider `CNC(C)CC1CCCC1` (stereo not drawn) [Cyclopentamine], for which the “Relative Reactivity” value in the data set on amphetamine antibody was 0.33.
As for “2: 0^3 -methoxyimidoylmethylmorphine conjugated to lysozyme [Example 2]”, in the data set with morphine antibodies [2] (antibody-inhibited conjugate), the “recovery of enzyme activity upon addition of aqueous morphine” value is listed as “full recovery of activity”. Moreover, in the data set on morphine antibodies [2] (dialysate of Example 2), the “inhibition of conjugate enzyme activity by morphine antibodies” value was “could be inhibited by morphine antibodies”.
Hydromorphine: the Percent max. rate in the data set on morphine antibodies [1] (setting [4]) worked out at 6%; in the data set on morphine antibodies [1] (compound concentration 3 μg/ml), 55%.
As for `CC(N)C(O)c1ccccc1` (stereo not drawn) [Phenylpropanolamine], in the data set with amphetamine antibody, the “Relative Reactivity” value turned out to be 0.33.
On to “17: thyroxine methyl ester diglycolic acid derivative conjugated to lysozyme [Example 17]”, for which the “inhibition by thyroxine antibodies” value in the data set on thyroxine antibodies was “could be inhibited by thyroxine antibodies”. Besides, in the data set with thyroxine antibodies (antibody-inhibited conjugate), the “activity after addition of thyroxine” value was “activity returned by the addition of thyroxine”. Moreover, the “enzyme activity of the conjugate” value in the data set on thyroxine antibodies (product after dialysis and centrifugation) is “active”.
In the case of `CC(C)=CCN1CCC2(C)c3cc(O)ccc3CC1C2C` (stereo not drawn) [Pentazocine], the Percent max. rate in the data set with morphine antibodies [1] (setting [3]) worked out at 3%.
In the data set on morphine antibodies [1] (setting [3]), `CCC1(c2ccccc2)C(=O)NC(=O)NC1=O` [Phenobarbital] had a Percent max. rate of 0%.
As for `CN1CC[C@]23c4c5ccc(O)c4O[C@H]2[C@@H](O)C=C[C@H]3[C@H]1C5` [Morphine], the Percent max. rate with morphine antibodies [1] (setting [4]) is 5%; in the data set with morphine antibodies [1] (compound concentration 3 μg/ml), 67%.
Take `CN(C)CCCN1c2ccccc2Sc2ccc(Cl)cc21` [Chlorpromazine]: in the data set with methadone antibody, the “Relative Reactivity” value amounted to 0.011.

(Values after US4065354A, “Lysozyme conjugates for enzyme immunoassays” (priority 1975, dated 1977).)
